Measured values from patent US20250221409A1, “COMPOSITION FOR POTENTIATING EFFECTS OF USEFUL SUBSTANCE” (KANEKA CORPORATION, priority 2022, published 2025).

Test system: soybean leaves
Assay: Promotion of herbicide (PQ) effects: SPAD values of soybean leaves after spraying test solutions
Assay type: in vivo, soybean (variety Fukuyutaka)
Conditions: Experimental Example 2-1 (FIG. 4); PQ 0.001 mass %, surfactin 0.001 mass %, lecithin 0.0005 mass %; 3 days after application
Protocol: Culture soil was filled into 9-cm vinyl pots, and soybean seeds (the variety: Fukuyutaka) were seeded at 3 grains/pot. Cultivation was performed in a glass greenhouse, and, after germination, strains were thinned to retain a strain in a pot. The test solutions shown in Table 4 were sprayed on leaves 3 seeks after seeding. The test solutions were prepared by dissolving the components in water. The SPAD (soil and plant analyzer development) values of the leaves were measured using a chlorophyll meter (product name: SPAD-502Plus, Konica Minolta, Inc.) 3 days after application of the test solutions. The SPAD values are used as the indicators showing the chlorophyll amount of plants.
Culture soil was filled into 9-cm vinyl pots, and soybean seeds (the variety: Fukuyutaka) were seeded at 3 grains/pot. Cultivation was performed in a glass greenhouse, and, after germination, strains were thinned to retain a strain in a pot. The test solutions shown in Table 5 were sprayed on leaves 3 seeks after seeding. The test solutions were prepared by dissolving the components in water. When lecithin was to be added, at the outset, lecithin was dissolved in water, and a biosurfactant was added to reach a given concentration. The SPAD values of the leaves were measured using a chlorophyll meter 3 days after application of the test solutions.

SMILES: C[n+]1ccc(-c2cc[n+](C)cc2)cc1 [PQ, paraquat dichloride]
- SPAD values of the leaves: not substantially different from the SPAD values of the control
